The target of test [1] is T1, HCV polymerase (NS5B) type 1a (Hepatitis C virus genotype 1a, UniProt P26664).
T1 construct: made in house; host or cells: Escherichia coli (by the 'similar method' of the 1b enzyme)
The test is described as follows: Assay of enzyme (HCV polymerase) inhibitory activity, type 1a enzyme. The test is classed as biochemical, HCV type 1a (cloned from the blood of patients). In a few lines: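 His-tagged NS5B, C-terminal 47 residues deleted, type 1a at 1.5 μg/ml, with 5 μg/ml HCV 3′UTR substrate RNA, 50 μM ATP/GTP/CTP, 2 μM UTP plus [3H]UTP, pH 7.5 Tris, 5 mM MgCl2; 60 min at 25° C. TCA-precipitated RNA counted by scintillation; IC50 from radioactivity with vs. without compound.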

In test [2] the target is T2, HCV polymerase (NS5B) type 1b (Hepatitis C virus genotype 1b, UniProt P26663).
T2 construct: a region encoding NS5B (J Virol 1991 March, 65(3), 1105-13, 544 amino acids after deletion of 47 amino acids on the C-terminal); 6xHis (C); made in house; host or cells: Escherichia coli
The test is described as follows: Assay of enzyme (HCV polymerase) inhibitory activity, type 1b enzyme. The test is classed as biochemical, HCV BK strain (type 1b). The method in brief:
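His-tagged, C-terminally truncated NS5B (BK strain, 1b; 0.5 μg/ml) incubated with compound 60 min at 25 °C on 3′UTR-derived substrate RNA (5 μg/ml), 50 μM ATP/GTP/CTP, 2 μM UTP plus [3H]UTP, pH 7.5. Acid-precipitated RNA counted; IC50 from radioactivity with and without compound.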

[3] abbreviates: HCV polymerase inhibitory activity IC50, 1a, type 1a enzyme.
The mark [4] stands for this setting: HCV polymerase inhibitory activity IC50, 1b, type 1b enzyme.
The mark [5] stands for this setting: HCV polymerase inhibitory activity (IC50), 1a, type 1a enzyme 1.5 μg/ml, 25° C., 60 min.
Where [6] appears, read: HCV polymerase inhibitory activity (IC50), 1b, type 1b enzyme 0.5 μg/ml, 25° C., 60 min.

As a reminder, the IC50 is the concentration that gives 50% inhibition. Low readings indicate greater potency, high ones weaker potency. As to `CCc1ncc2sc(N3CCN(S(=O)(=O)c4ccc(C(F)(F)F)cc4)[C@@H](C(=O)NCc4ccc(OC(F)(F)F)cc4)C3)nc2n1` [Example 950, (R)-4-(5-ethyl-thiazolo[4,5-d]pyrimidin-2-yl)-1-(4-trifluoromethyl-benzenesulfonyl)-piperazine-2-carboxylic acid 4-trifluoromethoxy-benzylamide], the IC50 in test [1] (setting [3]) and in test [2] (setting [4]) was less than 100 nM in each case.
On to `CCC(F)(F)c1ccc(CNC(=O)[C@H]2CN(c3nc4nc(Cl)ncc4s3)CCN2S(=O)(=O)c2ccc(OC(F)(F)F)cc2)cc1` [Example 895, (R)-4-(5-chloro-thiazolo[4,5-d]pyrimidin-2-yl)-1-(4-trifluoromethoxy-benzenesulfonyl)-piperazine-2-carboxylic acid 4-(1,1-difluoro-propyl)-benzylamide], for which the half-maximal inhibitory concentration (IC50) in test [1] (setting [3]) and in test [2] (setting [4]) was less than 100 nM throughout.
Regarding `CCCc1ccc(CNC(=O)[C@H]2CN(c3nc4cc(C(=O)O)ncc4s3)CCN2S(=O)(=O)c2ccc(OC(F)(F)F)cc2)cc1` [Example 1082, 2-[(R)-3-(4-propyl-benzylcarbamoyl)-4-(4-trifluoromethoxy-benzenesulfonyl)-piperazin-1-yl]-thiazolo[5,4-c]pyridine-6-carboxylic acid], the half-inhibitory concentration (IC50) in test [1] (setting [3]) and in test [2] (setting [4]) was less than 100 nM throughout.
As to `Nc1nc(C(F)(F)F)nc2nc(N3CCN(S(=O)(=O)c4ccc(OC(F)(F)F)cc4)[C@@H](C(=O)NCc4ccc(OC(F)(F)F)cc4)C3)sc12` [Example 1021, (R)-4-(7-amino-5-trifluoromethyl-thiazolo[4,5-d]pyrimidin-2-yl)-1-(4-trifluoromethoxy-benzenesulfonyl)-piperazine-2-carboxylic acid 4-trifluoromethoxy-benzylamide], the half-inhibitory concentration (IC50) in test [1] (setting [3]) and in test [2] (setting [4]) was less than 100 nM throughout.
Take `CCC(F)(F)c1ccc(CNC(=O)[C@H]2CN(c3cnc4cnccc4n3)CCN2S(=O)(=O)c2ccc(Cl)cc2)cc1` [Example 713, (R)-1-(4-chloro-benzenesulfonyl)-4-pyrido[3,4-b]pyrazin-2-yl-piperazine-2-carboxylic acid 4-(1,1-difluoro-propyl)-benzylamide]: the half-maximal inhibitory concentration (IC50) in test [1] (setting [3]) and in test [2] (setting [4]) was less than 100 nM in each case.
On to `COC(=O)c1cccc(NC(=O)N2CCN(S(=O)(=O)c3ccc(C(F)(F)F)cc3)[C@@H](C(=O)NCc3ccc(C(C)C)cc3)C2)c1` [Example 275, 3-{[(R)-3-(4-isopropyl-benzylcarbamoyl)-4-(4-trifluoromethyl-benzenesulfonyl)-piperazine-1-carbonyl]-amino}-benzoic acid methyl ester], for which the IC50 in test [1] (setting [5]) and in test [2] (setting [6]) was 100 to 1000 nM throughout.
As for `CCC(F)(F)c1ccc(CNC(=O)[C@H]2CN(c3cnc4cncnc4n3)CCN2S(=O)(=O)c2ccc(Br)cc2)cc1` [Example 683, (R)-1-(4-bromo-benzenesulfonyl)-4-pteridin-7-yl-piperazine-2-carboxylic acid 4-(1,1-difluoro-propyl)-benzylamide], the IC50 in test [1] (setting [3]) and in test [2] (setting [4]) was less than 100 nM each time.
Consider `Cc1csc(N2CCN(S(=O)(=O)c3ccc(C(C)C)cc3)C(C(=O)NCc3ccc(C(F)(F)F)cc3)C2)n1` (stereo not drawn) [Example 115, 1-(4-isopropyl-benzenesulfonyl)-4-(4-methyl-thiazol-2-yl)-piperazine-2-carboxylic acid 4-trifluoromethyl-benzylamide], for which the IC50 in test [1] (setting [5]) and in test [2] (setting [6]) was more than 1000 nM each time.
Take `CC(C)(C)c1ccc(CNC(=O)[C@H]2CN(c3cnc4cncnc4n3)CCN2S(=O)(=O)c2ccc(OC(F)(F)F)cc2)cc1` [Example 617, (R)-4-pteridin-7-yl-1-(4-trifluoromethoxy-benzenesulfonyl)-piperazine-2-carboxylic acid 4-tert-butyl-benzylamide]: the IC50 in test [1] (setting [5]) and in test [2] (setting [6]) was less than 100 nM each time.
Consider `CC(C)c1ccc(S(=O)(=O)N2CCN(C)CC2C(=O)NCc2ccc(C(F)(F)F)cc2)cc1` (stereo not drawn) [Example 16, 1-(4-isopropyl-benzenesulfonyl)-4-methyl-piperazine-2-carboxylic acid 4-trifluoromethyl-benzylamide], for which the IC50 in test [1] (setting [5]) and in test [2] (setting [6]) was more than 1000 nM each time.
On to `O=C(NCC1CN(c2ccccc2)C1)[C@H]1CN(c2cnc3cncnc3n2)CCN1S(=O)(=O)c1ccc(OC(F)(F)F)cc1` [Example 867, (R)-4-pteridin-7-yl-1-(4-trifluoromethoxy-benzenesulfonyl)-piperazine-2-carboxylic acid (1-phenyl-azetidin-3-ylmethyl)-amide], for which the IC50 in test [1] (setting [3]) and in test [2] (setting [4]) was 100 to 1000 nM in each case.
In the case of `CCCc1ccc(CNC(=O)[C@H]2CN(c3nc(C)c(C(=O)O)s3)CCN2S(=O)(=O)c2ccc(C(F)(F)F)cc2)cc1` [Example 339, 4-methyl-2-[(R)-3-(4-propyl-benzylcarbamoyl)-4-(4-trifluoromethyl-benzenesulfonyl)-piperazin-1-yl]-thiazole-5-carboxylic acid], the IC50 in test [1] (setting [5]) and in test [2] (setting [6]) was less than 100 nM throughout.
As to `Cc1nc(N2CCN(S(=O)(=O)c3ccc(C(F)(F)F)cc3)[C@@H](C(=O)NCc3ccc(C(C)C)cc3)C2)ncc1C(=O)O` [Example 338, 2-[(R)-3-(4-isopropyl-benzylcarbamoyl)-4-(4-trifluoromethyl-benzenesulfonyl)-piperazin-1-yl]-4-methyl-pyrimidine-5-carboxylic acid], the concentration for half-maximal inhibition (IC50) is more than 1000 nM in test [1] (setting [5]) and 100 to 1000 nM in test [2] (setting [6]).
Regarding `Cc1nnc(Cl)c2sc(N3CCN(S(=O)(=O)c4ccc(OC(F)(F)F)cc4)[C@@H](C(=O)NCc4ccc(OC(F)(F)F)cc4)C3)nc12` [Example 906, (R)-4-(7-chloro-4-methyl-thiazolo[4,5-d]pyridazin-2-yl)-1-(4-trifluoromethoxy-benzenesulfonyl)-piperazine-2-carboxylic acid 4-trifluoromethoxy-benzylamide], the IC50 in test [1] (setting [3]) and in test [2] (setting [4]) was less than 100 nM each time.
In the case of `CCCc1ccc(CNC(=O)[C@H]2CN(c3cc(C)n(CC(=O)O)n3)CCN2S(=O)(=O)c2ccc(OC(F)(F)F)cc2)cc1` [Example 1094, {5-methyl-3-[(R)-3-(4-propyl-benzylcarbamoyl)-4-(4-trifluoromethoxy-benzenesulfonyl)-piperazin-1-yl]-pyrazol-1-yl}-acetic acid], the half-inhibitory concentration (IC50) in test [1] (setting [3]) and in test [2] (setting [4]) was 100 to 1000 nM in each case.
With `CCC(F)(F)c1ccc(CNC(=O)[C@H]2CN(C(=O)Nc3nnc(C(=O)N4CCC(O)CC4)s3)CCN2S(=O)(=O)c2ccc(OC(F)(F)F)cc2)cc1` [Example 496, (R)-4-(4-trifluoromethoxy-benzenesulfonyl)-piperazine-1,3-dicarboxylic acid 3-[4-(1,1-difluoro-propyl)-benzylamide] 1-{[5-(4-hydroxy-piperidine-1-carbonyl)-[1,3,4]thiadiazol-2-yl]-amide}], the half-inhibitory concentration (IC50) in test [1] (setting [5]) and in test [2] (setting [6]) was more than 1000 nM each time.
Consider `COc1ccc(CNC(=O)C2CN(C(C)=O)CCN2S(=O)(=O)c2ccc(C(C)C)cc2)cc1OC` (stereo not drawn) [Example 198, 4-acetyl-1-(4-isopropyl-benzenesulfonyl)-piperazine-2-carboxylic acid 3,4-dimethoxy-benzylamide], for which the IC50 in test [1] (setting [5]) and in test [2] (setting [6]) was more than 1000 nM throughout.
Take `COC(=O)c1ncc(N2CCN(S(=O)(=O)c3ccc(C(F)(F)F)cc3)[C@@H](C(=O)NCc3ccc(C(C)C)cc3)C2)nc1N` [Example 423, (R)-6′-amino-3-(4-isopropyl-benzylcarbamoyl)-4-(4-trifluoromethyl-benzenesulfonyl)-3,4,5,6-tetrahydro-2H-[1,2′]bipyrazinyl-5′-carboxylic acid methyl ester]: the IC50 in test [1] (setting [5]) and in test [2] (setting [6]) was less than 100 nM in each case.
With `CCCc1ccc(CNC(=O)[C@H]2CN(C(=O)Cn3ncnn3)CCN2S(=O)(=O)c2ccc(OC(F)(F)F)cc2)cc1` [Example 460, (R)-4-(2-tetrazol-2-yl-acetyl)-1-(4-trifluoromethoxy-benzenesulfonyl)-piperazine-2-carboxylic acid 4-propyl-benzylamide], the half-inhibitory concentration (IC50) in test [1] (setting [5]) and in test [2] (setting [6]) was less than 100 nM each time.
`CCOC(=O)CN(C)c1ccc(S(=O)(=O)N2CCN(c3cnc4cnccc4n3)C[C@@H]2C(=O)NCc2ccc(OC(F)(F)F)cc2)cc1` [Example 764, (methyl-{4-[(R)-4-pyrido[3,4-b]pyrazin-2-yl-2-(4-trifluoromethoxy-benzylcarbamoyl)-piperazine-1-sulfonyl]-phenyl}-amino)-acetic acid ethyl ester]: the IC50 in test [1] (setting [3]) and in test [2] (setting [4]) was less than 100 nM each time.
Consider `O=C(NCc1ccc(OC(F)(F)F)cc1)[C@H]1CN(c2nc3ncncc3s2)CCN1S(=O)(=O)c1ccc(OC(F)(F)F)cc1` [Example 801, (R)-4-thiazolo[4,5-d]pyrimidin-2-yl-1-(4-trifluoromethoxy-benzenesulfonyl)-piperazine-2-carboxylic acid 4-trifluoromethoxy-benzylamide], for which the IC50 in test [1] (setting [3]) and in test [2] (setting [4]) was less than 100 nM throughout.

(Values after patent publication US8017612B2, “Piperazine compound and use thereof as a HCV polymerase inhibitor” (priority 2006, dated 2011).)
